Data from US10485236B2, “Triazole derivatives, intermediates thereof and their use as fungicides” (Bayer CropScience Aktiengesellschaft, priority 2015, dated 2019).

Tests used:
[1] = tested on: Sphaerotheca fuliginea; experiment: Example M: in vivo preventive test on Sphaerotheca (cucumbers); comparison of phenoxy-pyridyl compounds vs. known phenoxy-phenyl compounds; settings: Podosphaera fuliginea, 168 h, rate of application 10 ppm, evaluated 7 days after inoculation, read-out: Efficacy in %
Method: Example M: In Vivo Preventive Test on Sphaerotheca (Cucumbers); Comparison of Phenoxy-pyridyl Compounds According to the Invention Vs. Known Phenoxy-phenyl Compounds [table] To produce a suitable preparation of active compound, 1 part by weight of active compound is mixed with the above stated amounts of solvent and emulsifier, and the concentrate is diluted with water to the desired concentration. To test for preventive activity, young plants are sprayed with the preparation of active compound at the stated rate of application. After the spray coating has dried on, the plants are inoculated with an aqueous spore suspension of Sphaerotheca fuliginea. The plants are then placed in a greenhouse at approximately 23° C. and a relative atmospheric humidity of approximately 70%. The test is evaluated 7 days after the inoculation. 0% means an efficacy which corresponds to that of the untreated control, while an efficacy of 100% means that no disease is observed. [table]

[2] = tested on: Puccinia triticina; experiment: Example K: in vivo preventive Puccinia triticina test (wheat); settings: 192 h, 500 ppm of active ingredient, preventive spray, evaluated 8 days after inoculation, read-out: efficacy
Method: Example K: In Vivo Preventive Puccinia Triticina Test (Wheat)
To produce a suitable preparation of active compound, 1 part by weight of active compound or active compound combination is mixed with the stated amounts of solvent and emulsifier, and the concentrate is diluted with water to the desired concentration.
To test for preventive activity, young plants are sprayed with the preparation of active compound or active compound combination at the stated rate of application.
After the spray coating has been dried, the plants are sprayed with a spore suspension of Puccinia triticina. The plants remain for 48 hours in an incubation cabinet at approximately 20° C. and a relative atmospheric humidity of approximately 100%.
The plants are placed in the greenhouse at a temperature of approximately 20° C. and a relative atmospheric humidity of approximately 80%.
The test is evaluated 8 days after the inoculation. 0% means an efficacy which corresponds to that of the untreated control, while an efficacy of 100% means that no disease is observed.

[3] = tested on: Leptosphaeria nodorum; experiment: Example J: in vivo preventive Leptosphaeria nodorum test (wheat); settings: Parastagonospora nodorum, 192 h, 500 ppm of active ingredient, preventive spray, evaluated 8 days after inoculation, read-out: efficacy
Method: Example J: In Vivo Preventive Leptosphaeria nodorum Test (Wheat) [table] To produce a suitable preparation of active compound, 1 part by weight of active compound or active compound combination is mixed with the stated amounts of solvent and emulsifier, and the concentrate is diluted with water to the desired concentration. To test for preventive activity, young plants are sprayed with the preparation of active compound or active compound combination at the stated rate of application. After the spray coating has been dried, the plants are sprayed with a spore suspension of Leptosphaeria nodorum. The plants remain for 48 hours in an incubation cabinet at approximately 20° C. and a relative atmospheric humidity of approximately 100%. The plants are placed in the greenhouse at a temperature of approximately 25° C. and a relative atmospheric humidity of approximately 80%. The test is evaluated 8 days after the inoculation. 0% means an efficacy which corresponds to that of the untreated control, while an efficacy of 100% means that no disease is observed.

[4] = tested on: Phakopsora pachyrhizi; experiment: Example G: in vivo preventive test on Phakopsora test (soybeans); settings: 168 h, 100 ppm of active ingredient, preventive spray, evaluated 7 days after inoculation, read-out: efficacy
Method: Example G: In Vivo Preventive Test on Phakopsora Test (Soybeans) [table] To produce a suitable preparation of active compound, 1 part by weight of active compound is mixed with the stated amounts of solvent and emulsifier, and the concentrate is diluted with water to the desired concentration. To test for preventive activity, young plants are sprayed with the preparation of active compound at the stated rate of application. After the spray coating has dried on, the plants are inoculated with an aqueous spore suspension of the causal agent of soybean rust (Phakopsora pachyrhizi) and stay for 24 h without light in an incubation cabinet at approximately 24° C. and a relative atmospheric humidity of 95%. The plants remain in the incubation cabinet at approximately 24° C. and a relative atmospheric humidity of approximately 80% and a day/night interval of 12 h. The test is evaluated 7 days after the inoculation. 0% means an efficacy which corresponds to that of the untreated control, while an efficacy of 100% means that no disease is observed.

[5] = tested on: Blumeria graminis f.sp. hordei; experiment: Example I: in vivo preventive Blumeria test (barley); settings: 168 h, 500 ppm of active ingredient, preventive spray, evaluated 7 days after inoculation, read-out: efficacy
Method: Example I: In Vivo Preventive Blumeria Test (Barley) [table] To produce a suitable preparation of active compound, 1 part by weight of active compound or active compound combination is mixed with the stated amounts of solvent and emulsifier, and the concentrate is diluted with water to the desired concentration. To test for preventive activity, young plants are sprayed with the preparation of active compound or active compound combination at the stated rate of application. After the spray coating has been dried, the plants are dusted with spores of Blumeria graminis f.sp. hordei. The plants are placed in the greenhouse at a temperature of approximately 18° C. and a relative atmospheric humidity of approximately 80% to promote the development of mildew pustules. The test is evaluated 7 days after the inoculation. 0% means an efficacy which corresponds to that of the untreated control, while an efficacy of 100% means that no disease is observed.

[6] = tested on: Botrytis cinerea; experiment: Example A: in vivo preventive test on Botrytis cinerea (grey mould), gherkin; settings: gherkin plants, preventive spray, evaluated 4 to 5 days after inoculation, read-out: efficacy
Method: Example A: In Vivo Preventive Test on Botrytis cinerea (Grey Mould) [table] The active ingredients are made soluble and homogenized in a mixture of Dimethyl sulfoxide/Acetone//Tween® 80 and then diluted in water to the desired concentration. The young plants of gherkin are treated by spraying the active ingredient prepared as described above. Control plants are treated only with an aqueous solution of Acetone/Dimethyl sulfoxide/Tween® 80. After 24 hours, the plants are contaminated by spraying the leaves with an aqueous suspension of Botrytis cinerea spores. The contaminated gherkin plants are incubated for 4 to 5 days at 17° C. and at 90% relative humidity. The test is evaluated 4 to 5 days after the inoculation. 0% means an efficacy which corresponds to that of the control plants while an efficacy of 100% means that no disease is observed.

SMILES	pest or weed control at 10 ppm [1]	pest or weed control at 500 ppm [2]	pest or weed control at 500 ppm [3]	pest or weed control at 100 ppm [4]	pest or weed control at 500 ppm [5]	pest or weed control [6]
OC(Cn1cncn1)c1cnc(Oc2ccc(C(F)(F)F)cc2)cc1C(F)(F)F (stereo not drawn) [I.47]	100%	90 to 100%	90 to 100%	90 to 100%	90 to 100%	80 to 89%
O=C(Cn1cncn1)c1ccc(Oc2ccc(Cl)cc2)nc1C(F)(F)F [VII.01, 1-[6-(4-chlorophenoxy)-2-(trifluoromethyl)-3-pyridyl]-2-(1,2,4-triazol-1-yl)ethanone]	78%	90 to 100%	90 to 100%	80 to 89%	90 to 100%	–
Cc1ccc(Oc2ccc(C(O)Cn3cncn3)c(Cl)n2)cc1Cl (stereo not drawn) [I.16]	77%	–	–	90 to 100%	–	90 to 100%
CC(O)(Cn1cncn1)c1ccc(Oc2ccc(Cl)cc2)nc1C(F)(F)F (stereo not drawn) [I.01, 2-[6-(4-chlorophenoxy)-2-(trifluoromethyl)-3-pyridyl]-1-(1,2,4-triazol-1-yl)propan-2-ol]	100%	90 to 100%	90 to 100%	90 to 100%	90 to 100%	90 to 100%
CC(O)(Cn1cncn1)c1cnc(Oc2ccc(Cl)cc2)cc1C(F)(F)F (stereo not drawn) [I.02, 2-[6-(4-chlorophenoxy)-4-(trifluoromethyl)-3-pyridyl]-1-(1,2,4-triazol-1-yl)propan-2-ol]	–	90 to 100%	90 to 100%	90 to 100%	90 to 100%	–
OC(Cn1cncn1)c1cnc(Oc2ccc(S(F)(F)(F)(F)F)cc2)cc1C(F)(F)F (stereo not drawn) [I.36]	100%	90 to 100%	90 to 100%	90 to 100%	90 to 100%	–
OC(Cn1cncn1)c1ccc(Oc2ccc(Cl)cc2)nc1C(F)(F)F (stereo not drawn) [I.03, 1-[6-(4-chlorophenoxy)-2-(trifluoromethyl)-3-pyridyl]-2-(1,2,4-triazol-1-yl)ethanol]	–	90 to 100%	80 to 89%	90 to 100%	–	90 to 100%
OC(Cn1cncn1)c1ccc(Oc2ccc(Cl)cc2)nc1Cl (stereo not drawn) [I.14]	83%	90 to 100%	70 to 79%	90 to 100%	90 to 100%	90 to 100%
C[C@@](O)(Cn1cncn1)c1cnc(Oc2ccc(Cl)cc2)cc1C(F)(F)F [I.45]	99%	90 to 100%	90 to 100%	90 to 100%	90 to 100%	90 to 100%
CC(O)(Cn1cncn1)c1ccc(Oc2ccc(C(F)F)cc2)nc1Cl (stereo not drawn) [I.39]	97%	90 to 100%	70 to 79%	90 to 100%	90 to 100%	90 to 100%
OC(Cn1cncn1)(c1ccc(Oc2ccc(Cl)cc2)nc1C(F)(F)F)C1CC1 (stereo not drawn) [I.91, 1-[6-(4-chlorophenoxy)-2-(trifluoromethyl)-3-pyridyl]-1-cyclopropyl-2-(1,2,4-triazol-1-yl)ethanol]	–	90 to 100%	–	90 to 100%	90 to 100%	90 to 100%
CC(O)(Cn1cncn1)c1cnc(Oc2ccccc2)cc1Cl (stereo not drawn) [I.05]	71%	90 to 100%	80 to 89%	90 to 100%	90 to 100%	90 to 100%
CC(O)(Cn1cncn1)c1ccc(Oc2ccc(S(F)(F)(F)(F)F)cc2)nc1Cl (stereo not drawn) [I.35]	100%	90 to 100%	80 to 89%	70 to 79%	90 to 100%	–
